Test system: KRAS G12D mutated nucleotide (GAT), biotinylated hairpin (DNA, hairpin) TACATCTGATGGCGTATTAAGTTTTCTTAATACGCCATCAGATGTA
Experiment: SPR (Biacore X100), kinetic kd/ka
Details: 150 mM NaCl; HBS-EP (10 mM HEPES, 3 mM EDTA, 0.005% P20), 0.1% DMSO, pH 7.4, 25 °C; printed ka, kd give 3.04 × 10^-8

- KD: 304 nM
SMILES: CN(C)CCCNC(=O)CCNC(=O)c1cc(NC(=O)c2nc(NC(=O)c3nc(NC(=O)CCNC(=O)c4cc(NC(=O)c5nc(NC(=O)CCCNC(=O)c6cc(NC(=O)c7cc(NC(=O)c8cc(NC(=O)CCNC(=O)c9cc(NC(=O)c%10nc(NC(=O)CCNC(=O)CCCC[C@@H]%11SC[C@@H]%12NC(=O)NC%12%11)cn%10C)cn9C)cn8C)cn7C)cn6C)cn5C)cn4C)cn3C)cn2C)cn1C (stereo partly shown)

Source: PMC6683117 (2019)
